Data published in patent US3981999A, “Fish disease treatment” (Dainippon Pharmaceutical Co., Ltd., priority 1973, dated 1976).
Converted amounts (≈) assume the structure as drawn.

Assays:
goldfish [1] = test: Bathing toxicity in goldfish; assay type: in vivo; details: for Mortality: 5 days; for Number of the survival after 1 day / Number of the survival after 2 days / Number of the survival after 3 days / Number of the survival after 4 days / Number of the survival after 5 days: day 0: 6 fish
Description: (§1) Groups of goldfish each weighing 7 to 8 g (each group consisting of 6 goldfish) were placed in 6 liters of fresh water (27° to 30°C.) containing PA in varying concentrations with aeration for 5 days. During this time, observation was made.

[2] = Bathing toxicity in goldfish; assay type: in vivo; details: fresh water; goldfish, bathing for 5 days, 27° to 30°C; read-out: LC50 (50% lethal concentration)
Description: as §1

goldfish [3] = test: Oral toxicity in goldfish; assay type: in vivo; details: 10% in diet (PA 800, AT-1493 955, AT-1557 935, AT-1475 923 mg/kg)
Description: A diet containing 10% of each of the test compounds was given orally to groups each consisting of 5 goldfish each weighing 6 to 10 g, and observation was made for the following 7 days. The temperature of the water was maintained at 28°C.

[4] = tested on: Aeromonas liquefaciens Y-62; test: Oral administration to eels starting the day before Aeromonas infection; assay type: in vivo, eels (Anguilla Japonica); details: oral 1.56 mg/kg/day for 2 days starting the day before infection; seventh day
Description: Groups of eels (Anguilla Japonica, average weight 100 g) (each group consisting of 50 fish) were infected intramuscularly with Aeromonas liquefaciens Y-62 (10^9 germs/fish). For 2 days starting at the day before infection, a suspension consisting of a diet containing PA was orally administered to the eels using a catheter at a dose of 1.56 mg/kg/day. On the seventh day after the infection, the eels were observed.
During the experimental period, the temperature of the water was maintained at 25° to 26°C.

CCn1cc(C(=O)O)c(=O)c2cnc(N3CCCC3)nc21 [PA, 5,8-dihydro-2-pyrrolidino-8-ethyl-5-oxopyrido[2,3-d]pyrimidine-6-carboxylic acid]
Mortality (goldfish [1]; bathing conc. 4 μg/ml): 0%
Number of the survival after 1 day (goldfish [1]; bathing conc. 4 μg/ml): 6
Number of the survival after 2 days (goldfish [1]; bathing conc. 4 μg/ml): 6
Number of the survival after 3 days (goldfish [1]; bathing conc. 4 μg/ml): 6
Number of the survival after 4 days (goldfish [1]; bathing conc. 4 μg/ml): 6
Number of the survival after 5 days (goldfish [1]; bathing conc. 4 μg/ml): 6
Mortality (goldfish [1]; bathing conc. 8 μg/ml): 20%
Number of the survival after 1 day (goldfish [1]; bathing conc. 8 μg/ml): 6
Number of the survival after 2 days (goldfish [1]; bathing conc. 8 μg/ml): 6
Number of the survival after 3 days (goldfish [1]; bathing conc. 8 μg/ml): 5
Number of the survival after 4 days (goldfish [1]; bathing conc. 8 μg/ml): 5
Number of the survival after 5 days (goldfish [1]; bathing conc. 8 μg/ml): 5
Mortality (goldfish [1]; bathing conc. 16 μg/ml): 100%
Number of the survival after 1 day (goldfish [1]; bathing conc. 16 μg/ml): 6
Number of the survival after 2 days (goldfish [1]; bathing conc. 16 μg/ml): 6
Number of the survival after 3 days (goldfish [1]; bathing conc. 16 μg/ml): 1
Number of the survival after 4 days (goldfish [1]; bathing conc. 16 μg/ml): 0
LC50 at 120 h [2]: 10.1 µg/mL (≈ 35.1 µM)
Mortality (goldfish [3]; 7 days): 0%
Number of the survival after 1 day from administration (goldfish [3]; day 0: 5 fish): 5
Number of the survival after 2 days from administration (goldfish [3]; day 0: 5 fish): 5
Number of the survival after 3 days from administration (goldfish [3]; day 0: 5 fish): 5
Number of the survival after 4 days from administration (goldfish [3]; day 0: 5 fish): 5
Number of the survival after 5 days from administration (goldfish [3]; day 0: 5 fish): 5
Number of the survival after 6 days from administration (goldfish [3]; day 0: 5 fish): 5
Number of the survival after 7 days from administration (goldfish [3]; day 0: 5 fish): 5
eels survived [4]: 80%
